Structures can show the parent of a compound that is named as a salt.

The target of this assay is T1, Recombinant human KIF18A (1-467 His-tagged) (Homo sapiens, UniProt Q8NI77).
T1 construct: Recombinant human KIF18A (1-467 His-tagged) protein; His
Put plainly: KIF18A Enzyme Assay: microtubule-stimulated ATPase activity (ADP-Glo). The conditions noted are these: 30 nM KIF18A, 30 μg/mL pig microtubules, ATP 75 μM (Km), ADP-Glo luminescence. The format is biochemical. As for the experimental part: KIF18A Enzyme Assay: Microtubule-stimulated ATPase activity assay is used to measure KIF18A enzyme activity after treatment with compound. Compounds were 2-fold serially diluted in DMSO (Sigma Inc) over 22-point concentration range. […] The assay measures ADP formed from the ATPase reaction. […] Read luminescence using EnVision microplate reader with ultra-luminescence module (Perkin Elmer Inc). Concentration-response curve-fitting and IC50 determination was performed using Genedata Screener Software (Standard 15.0.1, Genedata Inc) with a four-parameter logistic regression fit model.
(In general: ADP-Glo turns the ADP formed in a reaction into a luminescent signal.)

T1 sequence (Q8NI77 1-467): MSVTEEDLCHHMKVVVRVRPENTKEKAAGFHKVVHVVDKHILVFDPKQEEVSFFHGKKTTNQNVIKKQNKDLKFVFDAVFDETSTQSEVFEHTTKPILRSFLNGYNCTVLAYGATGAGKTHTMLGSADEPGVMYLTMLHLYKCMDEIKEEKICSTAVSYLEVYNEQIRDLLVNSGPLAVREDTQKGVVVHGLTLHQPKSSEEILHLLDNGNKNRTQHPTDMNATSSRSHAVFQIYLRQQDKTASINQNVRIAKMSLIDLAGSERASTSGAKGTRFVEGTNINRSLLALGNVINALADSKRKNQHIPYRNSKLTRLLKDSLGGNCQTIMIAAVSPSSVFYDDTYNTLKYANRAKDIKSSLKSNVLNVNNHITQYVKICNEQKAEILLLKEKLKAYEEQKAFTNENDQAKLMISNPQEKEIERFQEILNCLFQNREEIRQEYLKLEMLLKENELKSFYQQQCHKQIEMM
T1 sequence (P02550 whole entry partner): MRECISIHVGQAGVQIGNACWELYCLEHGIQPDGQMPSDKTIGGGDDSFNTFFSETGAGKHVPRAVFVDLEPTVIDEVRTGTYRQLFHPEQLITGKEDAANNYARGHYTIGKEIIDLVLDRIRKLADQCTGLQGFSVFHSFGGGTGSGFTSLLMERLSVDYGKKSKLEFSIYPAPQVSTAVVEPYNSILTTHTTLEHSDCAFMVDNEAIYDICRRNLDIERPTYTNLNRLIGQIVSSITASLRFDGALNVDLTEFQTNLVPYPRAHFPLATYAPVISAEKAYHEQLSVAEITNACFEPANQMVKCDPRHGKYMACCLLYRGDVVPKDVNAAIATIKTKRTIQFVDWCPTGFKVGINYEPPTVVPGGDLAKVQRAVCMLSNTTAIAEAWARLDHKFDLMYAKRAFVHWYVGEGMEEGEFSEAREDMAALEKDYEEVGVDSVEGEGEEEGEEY
T1 sequence (P02554 whole entry partner): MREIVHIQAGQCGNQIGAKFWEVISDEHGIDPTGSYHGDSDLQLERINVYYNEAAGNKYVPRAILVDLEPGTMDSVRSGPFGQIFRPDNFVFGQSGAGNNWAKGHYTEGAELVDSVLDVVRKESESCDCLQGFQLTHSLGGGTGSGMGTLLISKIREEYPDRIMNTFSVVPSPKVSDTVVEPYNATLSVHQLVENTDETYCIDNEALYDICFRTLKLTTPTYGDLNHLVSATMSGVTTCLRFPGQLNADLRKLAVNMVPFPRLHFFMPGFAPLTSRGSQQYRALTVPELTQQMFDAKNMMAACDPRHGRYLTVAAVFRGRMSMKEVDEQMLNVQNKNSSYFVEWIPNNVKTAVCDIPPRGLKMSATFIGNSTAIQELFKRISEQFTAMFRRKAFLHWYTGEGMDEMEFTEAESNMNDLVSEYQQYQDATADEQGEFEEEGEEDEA

With `Cc1ccc(NC(=O)c2ccc(NS(=O)(=O)CCO)cc2N2CCC3(CC2)CC3)nc1N1CCOCC1` [Example 18, 4-((2-Hydroxyethyl)sulfonamido)-N-(5-methyl-6-morpholinopyridin-2-yl)-2-(6-azaspiro[2.5]octan-6-yl)benzamide], the IC50 worked out at 12 nM.

Consider `CC1(O)CCN(c2cccc(NC(=O)c3ccc(NS(=O)(=O)C4(C)CC4)cc3N3CCC4(CC3)CC4)n2)C1` (centres unmarked) [Example 3-2, N-(6-(3-Hydroxy-3-methylpyrrolidin-1-yl)pyridin-2-yl)-4-((1-methylcyclopropane)-1-sulfonamido)-2-(6-azaspiro[2.5]octan-6-yl)benzamide], for which the IC50 worked out at 359 nM. With `Cc1cc(NC(=O)c2ccc([S@](=N)(=O)C3CC3)cc2N2CCC3(CC2)CC3)nc(N2CCC(F)(F)CC2)c1` (single isomer, unassigned) [Example 30-1, 2-(6-Azaspiro[2.5]octan-6-yl)-4-(S-cyclopropylsulfonimidoyl)-N-(6-(4,4-difluoro-1-piperidinyl)-4-methyl-2-pyridinyl)benzamide], the concentration for half-maximal inhibition (IC50) stood at 81 nM. Turning to `CC1(F)CCN(c2cccc(NC(=O)c3ccc(NS(=O)(=O)C4(C)CC4)cc3N3CCC4(CC3)CC4)n2)CC1` [Example 3-13, N-(6-(4-Fluoro-4-methylpiperidin-1-yl)pyridin-2-yl)-4-((1-methylcyclopropane)-1-sulfonamido)-2-(6-azaspiro[2.5]octan-6-yl)benzamide], the half-maximal inhibitory concentration (IC50) came to 373 nM.

In the case of `CC(C)(C)NS(=O)(=O)c1cccc(NC(=O)c2ccc(NS(C)(=O)=O)cc2N2CCC3(CC2)CC3)n1` [Example 7-43, N-(6-(N-(tert-Butyl)sulfamoyl)pyridin-2-yl)-4-(methylsulfonamido)-2-(6-azaspiro[2.5]octan-6-yl)benzamide], the 50% inhibitory concentration (IC50) amounted to 55 nM.

With `CC1(S(=O)(=O)Nc2ccc(C(=O)Nc3cccc(N4CCc5cc(Cl)ccc54)n3)c(N3CCC4(CC3)CC4)c2)CC1` [Example 3-15, N-(6-(5-Chloroindolin-1-yl)pyridin-2-yl)-4-((1-methylcyclopropane)-1-sulfonamido)-2-(6-azaspiro[2.5]octan-6-yl)benzamide], the half-maximal inhibitory concentration (IC50) was 33 nM. Under `CC1(S(=O)(=O)Nc2ccc(C(=O)Nc3cccc(N4CCC(F)(F)CC4)n3)c(N3CCC4(CC3)CC4)c2)CC1` [Example 4-9, N-(6-(4,4-Difluoropiperidin-1-yl)pyridin-2-yl)-4-((1-methylcyclopropane)-1-sulfonamido)-2-(6-azaspiro[2.5]octan-6-yl)benzamide] stands 46 nM; under `Cc1cc(NC(=O)c2ccc(NS(=O)(=O)C3(C)CC3)cc2N2CCC3(CC2)CC3)nc(N2CC(F)(F)C2)c1` [Example 3-19, N-(6-(3,3-Difluoroazetidin-1-yl)-4-methylpyridin-2-yl)-4-((1-methylcyclopropane)-1-sulfonamido)-2-(6-azaspiro[2.5]octan-6-yl)benzamide], 103 nM; under `Cc1ccc(NC(=O)c2ccc(NS(=O)(=O)CCO)cc2N2CCC3(CC2)CC3)nc1N1CCC(F)(F)CC1` [Example 22, N-(6-(4,4-Difluoropiperidin-1-yl)-5-methylpyridin-2-yl)-4-((2-hydroxyethyl)sulfonamido)-2-(6-azaspiro[2.5]octan-6-yl)benzamide], 41 nM.

For `C[C@@H]1CN(c2cccc(NC(=O)c3ccc(NS(=O)(=O)[C@H](C)CO)cc3N3CCC4(CC3)CC4)n2)CCO1` (single isomer, unassigned) [Example 9-15], the IC50 was found to be 37 nM.

Turning to `C[C@@H]1CN(c2cccc(NC(=O)c3ccc(S(=O)(=O)N4CC(C#N)C4)cc3N3CCC4(CC3)CC4)n2)CCO1` [Example 1-13, (R)-4-((3-Cyanoazetidin-1-yl)sulfonyl)-N-(6-(2-methylmorpholino)pyridin-2-yl)-2-(6-azaspiro[2.5]octan-6-yl)benzamide], the IC50 amounted to 209 nM. As for `Cc1cc(NC(=O)c2ccc(NS(=O)(=O)[C@@H](C)CO)cc2N2CCC3(CC2)CC3)nc(N2CCO[C@H](C)C2)c1` (single isomer, unassigned) [Example 9-12], the IC50 came out at 39 nM. In the case of `C[C@@H]1CN(c2cccc(NC(=O)c3ccc(NS(=O)(=O)CC(F)(F)F)cc3N3CCC4(CC3)CC4)n2)CCO1` [Example 7-39, (R)-N-(6-(2-methylmorpholino)pyridin-2-yl)-2-(6-azaspiro[2.5]octan-6-yl)-4-((2,2,2-trifluoroethyl)sulfonamido)benzamide], the concentration for half-maximal inhibition (IC50) was determined as 135 nM. Turning to `CC(C)c1cccc(NC(=O)c2ccc(S(C)(=O)=O)cc2N2CCC3(CC2)CC3)n1` [Example 4-5, N-(6-Isopropylpyridin-2-yl)-4-(methylsulfonyl)-2-(6-azaspiro[2.5]octan-6-yl)benzamide], the IC50 is 179 nM. For the compound `CC(C)(C)S(=N)(=O)c1cccc(NC(=O)c2ccc(NS(=O)(=O)CCO)cc2N2CCC3(CC2)CC3)n1` (centres unmarked) [Example 26, 4-((2-Hydroxyethyl)sulfonamido)-N-(6-(2-methylpropan-2-ylsulfonimidoyl)pyridin-2-yl)-2-(6-azaspiro[2.5]octan-6-yl)benzamide], the IC50 was 363 nM. Then `N=S(=O)(c1ccc(C(=O)Nc2cccc(OCCC(F)(F)F)n2)c(N2CCC3(CC2)CC3)c1)C1CC1` (single isomer, unassigned) [Example 27-1, 2-(6-Azaspiro[2.5]octan-6-yl)-4-(S-cyclopropylsulfonimidoyl)-N-(6-(3,3,3-trifluoropropoxy)-2-pyridinyl)benzamide], with 22 nM. In the case of `C[C@@H]1CN(c2cccc(NC(=O)c3ccc(NS(=O)(=O)C4COC4)cc3N3CCC4(CC3)CC4)n2)CCO1` [Example 7-10, (R)-N-(6-(2-Methylmorpholino)pyridin-2-yl)-4-(oxetane-3-sulfonamido)-2-(6-azaspiro[2.5]octan-6-yl)benzamide], the IC50 came out at 63 nM. For the compound `C[C@@H]1CN(c2nc(NC(=O)c3ccc(NS(=O)(=O)CCO)cc3N3CCC4(CC3)CC4)ccc2F)CCO1` [Example 24, (R)-N-(5-Fluoro-6-(2-methylmorpholino)pyridin-2-yl)-4-((2-hydroxyethyl)sulfonamido)-2-(6-azaspiro[2.5]octan-6-yl)benzamide], the IC50 came out at 33 nM. For the compound `C[C@H]1CN(c2cccc(NC(=O)c3ccc(NS(=O)(=O)CCO)cc3N3CCC4(CC3)CC4)n2)CCO1` [Example 7-13, (S)-4-((2-Hydroxyethyl)sulfonamido)-N-(6-(2-methylmorpholino)pyridin-2-yl)-2-(6-azaspiro[2.5]octan-6-yl)benzamide], the IC50 is 46 nM. As to `CC(C)(O)CCOc1cccc(NC(=O)c2ccc(NS(=O)(=O)CCO)cc2N2CCC3(CC2)CC3)n1` [Example 16-5, N-(6-(3-Hydroxy-3-methylbutoxy)pyridin-2-yl)-4-((2-hydroxyethyl)sulfonamido)-2-(6-azaspiro[2.5]octan-6-yl)benzamide], the IC50 was found to be 84 nM. For the compound `Cc1cc(NC(=O)c2ccc(NS(=O)(=O)CCO)cc2N2CCC3(CC2)CC3)nc(N2CCOCC2)c1` [Example 7-17, 4-((2-Hydroxyethyl)sulfonamido)-N-(4-methyl-6-morpholinopyridin-2-yl)-2-(6-azaspiro[2.5]octan-6-yl)benzamide], the half-maximal inhibitory concentration (IC50) stood at 17 nM. Regarding `Cc1cc(NC(=O)c2ccc(S(=O)(=O)CCO)cc2N2CCC3(CC2)CC3)nc(N2CCO[C@H](C)C2)c1` [Example 2-7, (R)-4-((2-Hydroxyethyl)sulfonyl)-N-(4-methyl-6-(2-methylmorpholino)pyridin-2-yl)-2-(6-azaspiro[2.5]octan-6-yl)benzamide], the 50% inhibitory concentration (IC50) is 103 nM. In the case of `C[C@@H]1CN(c2cc(C#N)cc(NC(=O)c3ccc(NS(=O)(=O)CCO)cc3N3CCC4(CC3)CC4)n2)CCO1` [Example 25, (R)-N-(4-Cyano-6-(2-methylmorpholino)pyridin-2-yl)-4-((2-hydroxyethyl)sulfonamido)-2-(6-azaspiro[2.5]octan-6-yl)benzamide], the IC50 came out at 41 nM. On to `C[C@@H]1CN(c2cccc(NC(=O)c3ccc(S(=O)(=O)C(C)(C)CO)cc3N3CCC4(CC3)CC4)n2)CCO1` [Example 2-5, (R)-4-((1-Hydroxy-2-methylpropan-2-yl)sulfonyl)-N-(6-(2-methylmorpholino)pyridin-2-yl)-2-(6-azaspiro[2.5]octan-6-yl)benzamide], for which the concentration for half-maximal inhibition (IC50) amounted to 51 nM.

For the compound `Cc1cc(NC(=O)c2ccc(NS(=O)(=O)CCO)cc2N2CCC3(CC2)CC3)nc(OCC(O)C(F)(F)F)c1` (centres unmarked) [Example 17-1, 4-((2-Hydroxyethyl)sulfonamido)-N-(4-methyl-6-(3,3,3-trifluoro-2-hydroxypropoxy)pyridin-2-yl)-2-(6-azaspiro[2.5]octan-6-yl)benzamide], the IC50 is 68 nM.

Turning to `O=C(Nc1cncc(N2CCC(F)(F)CC2)n1)c1ccc(NS(=O)(=O)CCO)cc1N1CCC2(CC1)CC2` [Example 7-44, N-(6-(4,4-Difluoropiperidin-1-yl)pyrazin-2-yl)-4-((2-hydroxyethyl)sulfonamido)-2-(6-azaspiro[2.5]octan-6-yl)benzamide], the IC50 was found to be 16 nM. With `Cc1cc(NC(=O)c2ccc(NS(=O)(=O)[C@@H](C)CO)cc2N2CCC3(CC2)CC3)nc(N2CCOCC2)c1` (single isomer, unassigned) [Example 9-14], the half-inhibitory concentration (IC50) stood at 18 nM. With `O=C(Nc1cccc(OCCC(F)(F)F)n1)c1ccc(S(=O)(=O)C2CNC2)cc1N1CCC2(CC1)CC2` [Example 31, 4-(Azetidin-3-ylsulfonyl)-2-(6-azaspiro[2.5]octan-6-yl)-N-(6-(3,3,3-trifluoropropoxy)pyridin-2-yl)benzamide trifluoroacetate], the IC50 worked out at 55 nM.

`CC(Oc1cccc(NC(=O)c2ccc(NS(=O)(=O)CCO)cc2N2CCC3(CC2)CC3)n1)C1CC1` (centres unmarked) [Example 16-1, N-(6-(1-Cyclopropylethoxy)pyridin-2-yl)-4-((2-hydroxyethyl)sulfonamido)-2-(6-azaspiro[2.5]octan-6-yl)benzamide]: the half-maximal inhibitory concentration (IC50) is 51 nM.

As a reminder, the IC50 is the concentration at which inhibition is half-maximal.

The values are drawn from US12459932B2, “KIF18A inhibitors” (AMGEN INC., priority 2018, dated 2025).
